Measurements from patent publication US20250230171A1 (MOMA Therapeutics, Inc., priority 2023, published 2025).
Read-outs that look alike come from different tables or passages of the source.

Columns and labels:
[1] = test system: DLD1 BRCA2 (−/−) cells; assay: 7-day cell viability assay (CellTiter-Glo), DLD1 BRCA2 (−/−); format: cell-based, human; details: 7-day CellTiter-Glo, n=2, read-out: Viability IC50 (uM) DLD1 BRCA2 null
Outline: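 7-day growth assay in DLD1 cells with or without BRCA2; seeding densities chosen to keep log-linear growth. Compound: 10 uM top, 3-fold, 9 points. Endpoint: CTG ATP luminescence at RT.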

[2] = test system: DLD1 WT cells; assay: 7-day cell viability assay (CellTiter-Glo), DLD1 parental (WT); format: cell-based, human; details: 7-day CellTiter-Glo, n=2

Molecule	IC50 ([1]; Homo sapiens, DLD-1, 168 h) [µM]	IC50 ([2]; Homo sapiens, DLD-1, 168 h) [µM]	IC50 [1] [µM]	IC50 [2] [µM]
2′-Chloro-N-(5-(6-chloro-3-methylpyrazine-2-carbonyl)-5,6-dihydro-4H-pyrrolo[3,4-d]thiazol-2-yl)-5′-methoxy-6-methyl-[4,4′-bipyridine]-3-carboxamide [Example 505]			0.001 to 0.1	5 to 10
COc1ccc(C(=O)N2Cc3nc(NC(=O)c4cnc(C)cc4-c4cc(Cl)ncc4OC)sc3C2)c(F)n1 [Example 1038, 2′-chloro-N-(5-(2-fluoro-6-methoxynicotinoyl)-5,6-dihydro-4H-pyrrolo[3,4-d]thiazol-2-yl)-5′-methoxy-6-methyl-[4,4′-bipyridine]-3-carboxamide]	0.1 to 0.25	≥ 10		
COc1ccc(C#N)cc1-c1cc(C)ncc1C(=O)Nc1nc2c(s1)CN(C(=O)c1ccc(C(F)(F)F)nc1OC)C2 [Example 1005, 4-(5-cyano-2-methoxyphenyl)-N-(5-(2-methoxy-6-(trifluoromethyl)nicotinoyl)-5,6-dihydro-4H-pyrrolo[3,4-d]thiazol-2-yl)-6-methylnicotinamide]	0.001 to 0.1	≥ 10		
COc1cnc(Cl)cc1-c1cc(C)ncc1C(=O)Nc1nc2c(s1)CN(C(=O)[C@H]1CC[C@@H](OC(F)(F)F)CC1)C2 [Example 925]	0.001 to 0.1	5 to 10		
COc1ncc(Cl)cc1-c1cc(C)ncc1C(=O)Nc1nc2c(s1)CN(C(=O)c1nccc(C(F)(F)F)c1OC)C2 [Example 1034, 5-chloro-2-methoxy-N-(5-(3-methoxy-4-(trifluoromethyl)picolinoyl)-5,6-dihydro-4H-pyrrolo[3,4-d]thiazol-2-yl)-6′-methyl-[3,4′-bipyridine]-3′-carboxamide]	0.001 to 0.1	≥ 10		
2′-chloro-N-(5-(5-chloro-4-(difluoromethyl)pyrimidine-2-carbonyl)-5,6-dihydro-4H-pyrrolo[3,4-d]thiazol-2-yl)-5′-methoxy-6-methyl-[4,4′-bipyridine]-3-carboxamide [Example 644]			0.1 to 0.25	≥ 10
COc1cc(C)c(C(=O)N2Cc3nc(NC(=O)c4cnc(C)cc4-c4cc(Cl)ncc4OC)sc3C2)c(Cl)n1 [Example 1030, 2′-chloro-N-(5-(2-chloro-6-methoxy-4-methylnicotinoyl)-5,6-dihydro-4H-pyrrolo[3,4-d]thiazol-2-yl)-5′-methoxy-6-methyl-[4,4′-bipyridine]-3-carboxamide]	0.001 to 0.1	≥ 10		
COc1nc(C(F)(F)F)ccc1C(=O)N1Cc2nc(NC(=O)c3cnc(C)cc3-c3cc(C#N)cnc3OC)sc2C1 [Example 1048, 5-cyano-2-methoxy-N-(5-(2-methoxy-6-(trifluoromethyl)nicotinoyl)-5,6-dihydro-4H-pyrrolo[3,4-d]thiazol-2-yl)-6′-methyl-[3,4′-bipyridine]-3′-carboxamide]	0.001 to 0.1	≥ 10		
2′-chloro-N-(5-(5-chloro-2-methylisonicotinoyl)-5,6-dihydro-4H-pyrrolo[3,4-d]thiazol-2-yl)-5′-methoxy-6-methyl-[4,4′-bipyridine]-3-carboxamide [Example 519]			0.001 to 0.1	≥ 10
4-(5-Cyano-2-methoxyphenyl)-N-(5-(3-(difluoromethyl)-4-methoxybenzoyl)-5,6-dihydro-4H-pyrrolo[3,4-d]thiazol-2-yl)-6-methylnicotinamide [Example 486]			0.001 to 0.1	≥ 10
COc1cnc(Cl)cc1-c1cc(C)ncc1C(=O)Nc1nc2c(s1)CN(C(=O)c1cc(C)c(C(F)(F)F)c(C)n1)C2	0.001 to 0.1	≥ 10		
COc1cnc(Cl)cc1-c1cc(C)ncc1C(=O)Nc1nc2c(s1)CN(Cc1cccc(C(F)F)n1)C2	0.001 to 0.1	≥ 10		
COc1cnc(Cl)cc1-c1cc(C)ncc1C(=O)Nc1nc2c(s1)CN(C(=O)C1CCN(CC(F)(F)F)CC1)C2 [Example 959, 2′-chloro-5′-methoxy-6-methyl-N-(5-(1-(2,2,2-trifluoroethyl)piperidine-4-carbonyl)-5,6-dihydro-4H-pyrrolo[3,4-d]thiazol-2-yl)-[4,4′-bipyridine]-3-carboxamide]	0.001 to 0.1	≥ 10		
COc1nnc(C(F)F)cc1-c1cc(C)ncc1C(=O)Nc1nc2c(s1)CN(C(=O)c1nccc(C(F)(F)F)c1C)C2 [Example 1024, 4-(6-(difluoromethyl)-3-methoxypyridazin-4-yl)-6-methyl-N-(5-(3-methyl-4-(trifluoromethyl)picolinoyl)-5,6-dihydro-4H-pyrrolo[3,4-d]thiazol-2-yl)nicotinamide]	0.001 to 0.1	≥ 10		
COc1cnc(Cl)cc1-c1cc(C)ncc1C(=O)Nc1nc2c(s1)CN(C(=O)c1ncc(C(F)F)c(C)n1)C2	0.001 to 0.1	≥ 10		
COc1cnc(Cl)cc1-c1cc(C)ncc1C(=O)Nc1nc2c(s1)CN(C(=O)c1nccc(C(F)F)c1C)C2 [Example 976, 2′-chloro-N-(5-(4-(difluoromethyl)-3-methylpicolinoyl)-5,6-dihydro-4H-pyrrolo[3,4-d]thiazol-2-yl)-5′-methoxy-6-methyl-[4,4′-bipyridine]-3-carboxamide]	0.001 to 0.1	≥ 10		
COc1cnc(Cl)cc1-c1cc(C)ncc1C(=O)Nc1nc2c(s1)CN(C(=O)c1ccc(OC(F)(F)F)c(Cl)n1)C2 [Example 997]	0.001 to 0.1	≥ 10		
COc1cccc(F)c1-c1cc(C)ncc1C(=O)Nc1nc2c(s1)CN(C(=O)c1ccc(C(F)(F)F)nc1OC)C2 [Example 1013, 4-(2-fluoro-6-methoxyphenyl)-N-(5-(2-methoxy-6-(trifluoromethyl)nicotinoyl)-5,6-dihydro-4H-pyrrolo[3,4-d]thiazol-2-yl)-6-methylnicotinamide]	0.001 to 0.1	≥ 10		
COc1cnc(Cl)cc1-c1cc(C)ncc1C(=O)Nc1nc2c(s1)CN(C(=O)c1nc(C(F)(F)F)c(C#N)cc1C)C2 [Example 1022, 2′-chloro-N-(5-(5-cyano-3-methyl-6-(trifluoromethyl)picolinoyl)-5,6-dihydro-4H-pyrrolo[3,4-d]thiazol-2-yl)-5′-methoxy-6-methyl-[4,4′-bipyridine]-3-carboxamide]	0.001 to 0.1	≥ 10		
COc1nc(C(F)(F)F)ccc1C(=O)N1Cc2nc(NC(=O)c3cnc(C)cc3-c3cc(C(F)F)nnc3OC)sc2C1 [Example 1025, 4-(6-(difluoromethyl)-3-methoxypyridazin-4-yl)-N-(5-(2-methoxy-6-(trifluoromethyl)nicotinoyl)-5,6-dihydro-4H-pyrrolo[3,4-d]thiazol-2-yl)-6-methylnicotinamide]	0.001 to 0.1	≥ 10		
COc1cnc(Cl)cc1-c1cc(C)ncc1C(=O)Nc1nc2c(s1)CN(C(=O)c1ccc(OC(F)(F)F)c(C)n1)C2 [Example 995, 2′-chloro-5′-methoxy-6-methyl-N-(5-(6-methyl-5-(trifluoromethoxy)picolinoyl)-5,6-dihydro-4H-pyrrolo[3,4-d]thiazol-2-yl)-[4,4′-bipyridine]-3-carboxamide]	0.001 to 0.1	≥ 10		

The next lines start with results.

IC50 ([1]; Homo sapiens, DLD-1, 168 h) [µM]	Molecule	IC50 ([2]; Homo sapiens, DLD-1, 168 h) [µM]	IC50 [1] [µM]	IC50 [2] [µM]
0.001 to 0.1	COc1cnc(Cl)cc1-c1cc(C)ncc1C(=O)Nc1nc2c(s1)CN(C(=O)c1ccc(C(C)(F)F)cn1)C2	≥ 10		
0.001 to 0.1	COc1cnc(Cl)cc1-c1cc(C)ncc1C(=O)Nc1nc2c(s1)CN(C(=O)c1cnc(C(F)(F)F)c(C)n1)C2	0.5 to 2		
0.001 to 0.1	COc1cnc(Cl)cc1-c1cc(C)ncc1C(=O)Nc1nc2c(s1)CN(C(=O)c1nccc(C(F)(F)F)c1OC)C2 [Example 968, 2′-chloro-5′-methoxy-N-(5-(3-methoxy-4-(trifluoromethyl)picolinoyl)-5,6-dihydro-4H-pyrrolo[3,4-d]thiazol-2-yl)-6-methyl-[4,4′-bipyridine]-3-carboxamide]	≥ 10		
0.001 to 0.1	COc1cnc(Cl)cc1-c1cc(C)ncc1C(=O)Nc1nc2c(s1)CN(C(=O)c1ccc(C(F)(F)F)c(C)n1)C2	≥ 10		
0.001 to 0.1	COc1cnc(Cl)cc1-c1cc(C)ncc1C(=O)Nc1nc2c(s1)CN(C(=O)c1cnc(OC(F)F)cc1C)C2	≥ 10		
0.001 to 0.1	COc1ncc(Cl)cc1-c1cc(C)ncc1C(=O)Nc1nc2c(s1)CN(C(=O)c1ccc(C(F)(F)F)c(OC)n1)C2 [Example 1035, 5-chloro-2-methoxy-N-(5-(6-methoxy-5-(trifluoromethyl)picolinoyl)-5,6-dihydro-4H-pyrrolo[3,4-d]thiazol-2-yl)-6′-methyl-[3,4′-bipyridine]-3′-carboxamide]	≥ 10		
0.001 to 0.1	COc1cnc(Cl)cc1-c1cc(C)ncc1C(=O)Nc1nc2c(s1)CN(C(C)c1ccc(C(F)F)cc1F)C2 (centres unmarked) [Example 975, 2′-chloro-N-(5-(1-(4-(difluoromethyl)-2-fluorophenyl)ethyl)-5,6-dihydro-4H-pyrrolo[3,4-d]thiazol-2-yl)-5′-methoxy-6-methyl-[4,4′-bipyridine]-3-carboxamide]	≥ 10		
0.001 to 0.1	COc1cnc(Cl)cc1-c1cc(C)ncc1C(=O)Nc1nc2c(s1)CN(C(=O)c1nc(OC)c(Cl)nc1C)C2	≥ 10		
0.001 to 0.1	COc1cc(C(F)(F)F)ncc1C(=O)N1Cc2nc(NC(=O)c3cnc(C)cc3-c3cc(Cl)ncc3OC)sc2C1 [Example 974, 2′-chloro-5′-methoxy-N-(5-(4-methoxy-6-(trifluoromethyl)nicotinoyl)-5,6-dihydro-4H-pyrrolo[3,4-d]thiazol-2-yl)-6-methyl-[4,4′-bipyridine]-3-carboxamide]	≥ 10		
0.001 to 0.1	COc1cn2cncc2cc1-c1cc(C)ncc1C(=O)Nc1nc2c(s1)CN(C(=O)c1ccc(C(F)(F)F)nc1OC)C2 [Example 1004]	≥ 10		
